Measurements from patent US20250177391A1, “INHIBITORS OF DDR1 AND DDR2 FOR THE TREATMENT OF ARTHRITIS” (President and Fellows of Harvard College, priority 2022, published 2025).
Values after ≈ are worked out from the molar mass of the structure shown. “Also recorded” adds a separate entry of the source.

Columns and labels:
DDR1 (h) = DDR1 (h) (Homo sapiens (Human), UniProt Q08345); assay: DDR1 kinase inhibition, [γ-33P]-ATP filter assay; type: biochemical
Method: (§1) DDR1 (h) was incubated with 8 mM MOPS pH 7.0, 0.2 mM EDTA, 250 μM KKKSPGEYVNIEFG (SEQ ID NO: 1), 10 mM magnesium acetate and [γ-33P]-ATP (specific activity and concentration as required). The reaction was initiated by the addition of the Mg/ATP mix. After incubation for 40 minutes at room temperature, the reaction was stopped by the addition of phosphoric acid to a concentration of 0.5%. An aliquot of the reaction was then spotted onto a filter and washed four times for 4 minutes in 0.425% phosphoric acid and once in methanol prior to drying and scintillation counting.

DDR2 (h) = DDR2 (h) (Homo sapiens (Human), UniProt Q16832); assay: DDR2 kinase inhibition, [γ-33P]-ATP filter assay; type: biochemical
Chain of DDR2 (h) (Q16832 22-855): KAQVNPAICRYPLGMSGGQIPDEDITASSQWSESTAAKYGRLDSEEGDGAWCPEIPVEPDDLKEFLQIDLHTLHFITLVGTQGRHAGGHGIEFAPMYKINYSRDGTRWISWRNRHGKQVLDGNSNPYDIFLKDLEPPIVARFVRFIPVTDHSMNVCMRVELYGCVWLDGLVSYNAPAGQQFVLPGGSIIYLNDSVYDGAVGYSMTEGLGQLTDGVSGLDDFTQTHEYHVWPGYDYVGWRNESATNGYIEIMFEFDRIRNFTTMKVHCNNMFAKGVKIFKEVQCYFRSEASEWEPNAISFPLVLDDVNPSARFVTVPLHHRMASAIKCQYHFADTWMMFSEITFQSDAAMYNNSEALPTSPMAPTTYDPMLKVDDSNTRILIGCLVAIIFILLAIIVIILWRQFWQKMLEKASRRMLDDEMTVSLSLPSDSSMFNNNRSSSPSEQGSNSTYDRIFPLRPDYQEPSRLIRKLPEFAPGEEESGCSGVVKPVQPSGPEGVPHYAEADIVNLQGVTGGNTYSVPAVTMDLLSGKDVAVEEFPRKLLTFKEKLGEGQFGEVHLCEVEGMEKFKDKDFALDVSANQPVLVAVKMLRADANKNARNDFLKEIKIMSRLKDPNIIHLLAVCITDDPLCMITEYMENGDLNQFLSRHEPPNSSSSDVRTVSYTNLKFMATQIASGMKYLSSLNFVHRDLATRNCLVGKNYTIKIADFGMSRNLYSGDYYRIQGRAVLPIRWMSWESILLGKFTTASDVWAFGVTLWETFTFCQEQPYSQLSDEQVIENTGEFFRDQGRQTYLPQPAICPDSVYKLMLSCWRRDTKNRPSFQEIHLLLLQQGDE
Method: as §1, with “DDR2” for “DDR1”, “KKSRGDYMTMQIG” for “KKKSPGEYVNIEFG”, “TD” for “ID”, “2), 10 mM MnCl2,” for “1),”

[1] = tested on: 97 kinases (90 WT kinase and 7 mutants); assay: Kinase selectivity profiling (ScanEDGE, DiscoveRx) competition binding, qPCR readout; conditions: for Selectivity Score S(1) / Selectivity Score S(10) / Selectivity Score S(35): number of hits/number of assays, excluding mutants, 1000 nM; for # of Hits, S(35) / # of Hits, S(10) / # of Hits, S(1): screened at 1000 nM; for # of Hits, S(35): kinases inhibited by >65%; for # of Hits, S(10): kinases inhibited by >90%; for # of Hits, S(1): kinases inhibited by >99%
Description: (§2) Compounds that bind the kinase active site and directly (sterically) or indirectly (allosterically) prevent kinase binding to the immobilized ligand, will reduce the amount of kinase captured on the solid support. […] Screening “hits” are identified by measuring the amount of kinase captured in test versus control samples by using a quantitative qPCR method that detects the associated DNA label. Dissociation constants (Kds) for test compound-kinase interactions can be calculated by measuring the amount of kinase captured on the solid support as a function of the test compound concentration.
(§3) Kinase-tagged T7 phage strains were grown in parallel in 24-well blocks in an E. coli host derived from the BL21 strain. E. coli were grown to log-phase and infected with T7 phage from a frozen stock (multiplicity of infection=0.4) and incubated with shaking at 32° C. until lysis (90-150 minutes). The lysates were centrifuged (6,000×g) and filtered (0.2 μm) to remove cell debris. The remaining kinases were produced in HEK-293 cells and subsequently tagged with DNA for qPCR detection. Streptavidin-coated magnetic beads were treated with biotinylated small molecule ligands for 30 minutes at room temperature to generate affinity resins for kinase assays. The liganded beads were blocked with excess biotin and washed with blocking buffer (SeaBlock (Pierce), 1% BSA, 0.05% Tween 20, 1 mM DTT) to remove unbound ligand and to reduce non-specific phage binding. Binding reactions were assembled by combining kinases, liganded affinity beads, and test compounds in 1x binding buffer (20% SeaBlock, […], 0.05% Tween 20, 6 mM DTT). Test compounds were prepared as 40x stocks in 100% DMSO and directly diluted into the assay. All reactions were performed in polypropylene 384-well plates in a final volume of 0.02 mL. The assay plates were incubated at room temperature with shaking for 1 hour and the affinity beads were washed with wash buffer (1×PBS, 0.05% Tween 20). The beads were then re-suspended in elution buffer (1×PBS, 0.05% Tween […] non-biotinylated affinity ligand) and incubated at room temperature with shaking for 30 minutes. The kinase concentration in the eluates was measured by qPCR.
(§4) The compounds were screened at 1000 nM, and results for primary screen binding interactions were determined as “% Ctrl”. % Ctrl=[(test compound signal−positive control signal)/(negative control signal−positive control signal)]*100. Negative control was 100% DMSO. Test compounds were Compounds 1-4. Positive control was a control compound.
Selectivity Score or S-score is a quantitative measure of compound selectivity for DDR2. It was calculated by dividing the number of kinases that compounds bind to by the total number of distinct kinases tested, excluding mutant variants. S=number of hits/number of assays. % Ctrl was used as a potency threshold. Selectivity score values of CS analogs provided in Table 2 reflect the number of kinases inhibited by >65% (S35), >90% (S10), or 99% (S1) by Compounds 1-4.

p38-alpha = p38-alpha (Homo sapiens (Human), UniProt Q16539); assay: Binding to p38-alpha, % of DMSO control (kinase binding screen); conditions: smaller numbers indicate stronger binding; screened at 1000 nM
Chain of p38-alpha (Q16539 whole entry): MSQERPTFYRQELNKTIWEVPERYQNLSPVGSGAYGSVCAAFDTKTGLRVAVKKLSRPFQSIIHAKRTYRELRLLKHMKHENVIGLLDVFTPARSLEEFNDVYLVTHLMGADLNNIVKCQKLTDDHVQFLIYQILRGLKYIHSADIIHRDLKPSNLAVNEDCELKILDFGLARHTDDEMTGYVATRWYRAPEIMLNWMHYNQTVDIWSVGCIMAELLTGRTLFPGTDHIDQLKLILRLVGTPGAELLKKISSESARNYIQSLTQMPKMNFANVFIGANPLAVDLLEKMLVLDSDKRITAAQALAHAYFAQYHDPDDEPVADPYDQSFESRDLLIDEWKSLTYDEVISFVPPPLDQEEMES
Description: as §2, §3, §4
Table 3 provides binding affinity scores for p38-alpha as a percent relative to DMSO control. Smaller numbers indicate stronger binding.

[2] = Solubility in pH 7.4 phosphate buffer; type: physicochemical; conditions: aqueous buffer
Stability in HBSS buffer = type: physicochemical
Stability in plasma = type: in vitro ADME; conditions: all animals
Caco-2 permeability = type: in vitro ADME; conditions: human, Caco-2; Bi-directional; read-out: Caco-2 permeability, bidirectional efflux ratio
Caco-2 = Caco-2 permeability; type: in vitro ADME
[3] = Liver S9 stability (SD rat, beagle, human), overall; type: in vitro ADME
Liver S9 stability, rat = type: in vitro ADME; conditions: SD
[4] = Liver S9 stability, human; type: in vitro ADME
Liver S9 stability, dog = type: in vitro ADME; conditions: beagle
[5] = Stability in simulated synovial fluid; type: physicochemical
[6] = PK following IV dosing in male SD rats; conditions: rat, in vivo, IV 1 mg/kg
[7] = tested on: articular cartilage of mouse knee joints; assay: DMM surgery injurious mouse model of osteoarthritis, knee articular cartilage; type: in vivo; conditions: for Average articular cartilage score: treatment from 4 weeks after surgery
Method: Based on a pilot experiment,^1 the sample size of minimum 6 is required by the power analysis to achieve the specified confidence interval (95%) with at least 50% reduction of the score in the treatment group. Mouse knee joints were subjected to DMM surgery. Four weeks following the surgery, mice were treated with compound 3. Significant disparity was found in the progression of articular cartilage degeneration in knee joints with or without the treatment of compound 3 (FIG. 1).
The condition of the articular cartilage was also evaluated by the scoring system.^3 At 8 weeks after DMM surgery, the average scores for mice without and with treatment using compound 3 were 2.50 and 1.00, respectively. At 12 weeks following DMM surgery, the average scores were 4.75 for mice not treated with compound 3 and 2.83 for mice treated with compound 3. […] In addition, osteophytes and other abnormal morphology were not observed in the subchondral bone and synovial tissue in mice with or without the treatment with compound 3.

DDR2 = assay: Protein expression of DDR2 in articular cartilage after DMM (staining); type: in vivo, mouse; conditions: 8 weeks after DMM
Description: (§5) Inhibitory induction of Ddr2 and Mmp-13 in articular cartilage of knee joints was observed after treatment with the compound 3. The protein expressions of Ddr2 and Mmp-13 were examined in the articular cartilage of mouse knee joints at 8 weeks after DMM, with or without the treatment with compound 3.

Mmp-13 = assay: Protein expression of Mmp-13 in articular cartilage after DMM (staining); type: in vivo, mouse; conditions: 8 weeks after DMM
Description: as §5

Chain of DDR1 (h) (Q08345 19-913): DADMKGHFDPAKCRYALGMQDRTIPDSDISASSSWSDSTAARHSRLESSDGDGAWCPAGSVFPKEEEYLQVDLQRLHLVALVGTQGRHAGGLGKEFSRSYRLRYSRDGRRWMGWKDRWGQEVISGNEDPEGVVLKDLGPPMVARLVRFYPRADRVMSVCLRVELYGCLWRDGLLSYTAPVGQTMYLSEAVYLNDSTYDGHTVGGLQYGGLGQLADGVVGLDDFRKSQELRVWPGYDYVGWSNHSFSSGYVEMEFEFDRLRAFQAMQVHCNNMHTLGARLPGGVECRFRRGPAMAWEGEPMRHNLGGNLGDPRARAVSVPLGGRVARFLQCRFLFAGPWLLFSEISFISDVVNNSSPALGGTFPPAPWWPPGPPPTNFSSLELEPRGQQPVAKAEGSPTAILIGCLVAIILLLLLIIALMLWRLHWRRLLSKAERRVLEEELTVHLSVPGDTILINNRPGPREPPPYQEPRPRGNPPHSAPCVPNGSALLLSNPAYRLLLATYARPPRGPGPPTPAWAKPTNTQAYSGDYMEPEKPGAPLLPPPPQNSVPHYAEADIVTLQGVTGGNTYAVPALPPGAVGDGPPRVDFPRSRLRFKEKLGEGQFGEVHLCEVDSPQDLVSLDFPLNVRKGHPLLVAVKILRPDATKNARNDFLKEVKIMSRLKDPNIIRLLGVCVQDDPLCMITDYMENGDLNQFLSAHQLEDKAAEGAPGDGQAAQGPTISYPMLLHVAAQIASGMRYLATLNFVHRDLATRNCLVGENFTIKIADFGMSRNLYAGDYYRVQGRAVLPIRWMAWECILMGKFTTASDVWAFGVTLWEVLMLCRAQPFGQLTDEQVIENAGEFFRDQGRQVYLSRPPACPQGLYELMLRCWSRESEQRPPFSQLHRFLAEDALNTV

Compound	IC50 (DDR1 (h))	IC50 (DDR2 (h))	Selectivity Score S(1) [1]	Selectivity Score S(10) [1]	Selectivity Score S(35) [1]	# of Hits, S(35) [1]	# of Hits, S(10) [1]	# of Hits, S(1) [1]	Binding affinity score for p38-alpha as percent relative to DMSO control (p38-alpha)	solubility [2]	Stability in HBSS (buffer) (Stability in HBSS buffer)	Stability in plasma (Stability in plasma)	Caco-2 unidirectional permeability (in words) (Caco-2)	Liver S9 stability (in words) [3]	Stability in simulated synovial fluid [5]	further results
Cc1ccc(O)cc1Nc1ccnc(Nc2cccc(S(C)(=O)=O)c2)n1 [Compound 1, 4-methyl-3-[[2-(3-methylsulfonylanilino)pyrimidin-4-yl]amino]phenol]	13 nM	260 nM	0.078	0.244	0.322	29	22	7	0.5 % Ctrl	16 µM (≈ 5.93 µg/mL)	>120 min in buffer	>360 min (all	Very high	Rapid clearance	>5 days	efflux ratio (Caco-2 permeability): 4.27; half-life (Liver S9 stability, rat): 20 min; half-life [4]: < 10 min; half-life (Liver S9 stability, dog): < 10 min; AUC(0-t) [6]: 122 ng·h/mL; C0 [6]: 548 ng/mL; clearance [6]: 137 mL/min/kg; half-life [6]: 19.1 min; Vd ([6]; read-out: VSS): 2.11 L/kg
Cc1ccc(O)cc1Nc1ccnc(Nc2ccc(C(N)=O)cc2)n1 [Compound 2, 4-[[4-(5-hydroxy-2-methyl-anilino)pyrimidin-2-yl]amino]benzamide]	9 nM	156 nM	0.033	0.089	0.244	22	8	3	30 % Ctrl	770 µM (≈ 258 µg/mL)	>120 min in buffer	>360 min (all	Very high	Rapid clearance	>5 days	–
COc1ccc(S(N)(=O)=O)cc1Nc1nccc(N(C)c2ccc(N)cc2)n1 [Compound 3, 3-[[4-(4-amino-N-methyl-anilino)pyrimidin-2-yl]amino]-4-methoxy-benzenesulfonamide]	55 nM	> 3300 nM	0.056	0.089	0.178	16	8	5	83 % Ctrl	13.3 µM (≈ 5.33 µg/mL)	>120 min in buffer	>360 min (all	Very high	Very stable	>5 days	Cartilage damage score, treated versus untreated mice ([7]; 8 and 12 weeks after DMM): significant differences; Morphology of articular cartilage ([7]; 8 weeks after DMM surgery): localized chondrocyte clusters, but no fibrillation; also recorded: only chondrocyte clusters; Average articular cartilage score ([7]; 8 weeks after DMM surgery): 1.00; Morphology of articular cartilage ([7]; 12 weeks after DMM surgery): only localized absence of the proteoglycans; also recorded: only localized proteoglycan degradation; Average articular cartilage score ([7]; 12 weeks after DMM surgery): 2.83; Progressive process of articular cartilage degeneration ([7]; DMM-induced, mouse knee joints): Significant delay; also recorded: dramatically delayed; Osteophytes and other abnormal morphology in subchondral bone and synovial tissue ([7]; mice with or without treatment): not observed; DDR2 positive (stained) cells in articular cartilage (DDR2): dramatically reduced; also recorded: significant reduction; Mmp-13 positive (stained) cells in articular cartilage (Mmp-13): dramatically reduced; also recorded: significant reduction
COc1cc(Nc2nccc(Nc3ccc(N)cc3)n2)cc(S(C)(=O)=O)c1 [Compound 4, N4-(4-aminophenyl)-N2-(3-methoxy-5-(methylsulfonyl)phenyl)pyrimidine-2,4-diamine]	66 nM	1570 nM	0.022	0.122	0.233	21	11	2	87 % Ctrl	213 µM (≈ 82.1 µg/mL)	>120 min in buffer	>360 min (all	–	Very stable	>5 days	–
